The text below walks through data of patent US20260152691A1, “METHOD AND COMPOUNDS FOR TREATING OR PREVENTING AUTOIMMUNE DISORDERS OR IMMUNE RESPONSES MODULATED BY THE EXPRESSION OF IDO1” (The Trustees of Princeton University, priority 2019, published 2026).

Assay [1] concerns the target IDO1 (Homo sapiens, UniProt P14902). The assay is described as follows: IDO1 activity assay, N-formylkynurenine absorbance at 321 nm. The format is biochemical. The protocol:
FIG. 2 is a graph showing the activity of IDO1 (500 nM) (204) with L-tryptophan (200 μM) as substrate glutathione alone (203), and also when activated by 3 MI (500 nM) with glutathione (5 mM) (201), and by 3 MI (500 nM) without glutathione (202).
FIG. 6 reflects a system involving IDO1 (50 nM), 0.1 mM L-tryptophan, and 5 mM glutathione in 100 mM sodium phosphate, pH 7.0 with <1 μM 6-chloro-5-fluoro-1H-indole-3-thiol.
The activity of the compounds was determined as follows. UV-vis spectra were recorded using a Hewlett-Packer 8453 diode array spectrophotometer. Activity assays were done at room temperature using 100 mM sodium phosphate, pH 7.0, with 500 nM IDO1 (ε404nm=172 mM^−1 cm^−1) and 50 μM L-tryptophan. These were initiated by addition of IDO1, and activity was monitored at 321 nm where product N-formylkynurenine absorbs (ε321nm=3750 M^−1 cm^−1).
The substituted indole compound was prepared daily in a 100 mM stock solution in dimethyl sulfoxide (DMSO), and this was serially diluted to maintain a consistent final concentration of 1% (v/v) DMSO in each assay. To maintain activity, 5 mM reduced glutathione was added to some of these from a 0.5 M stock solution. The substituted indole compound was generally tested from 100 nM to 10 μM. The ability of each compound to serve as a reducing substrate for IDO1 was fit using a Michaelis-Menten equation. […] Above 5 μM 3 MI, there was a steep inhibitory effect.

For assay [2], the target named is T1, myoglobin (Homo sapiens, UniProt P02144).
T1 sequence (P02144 1-154): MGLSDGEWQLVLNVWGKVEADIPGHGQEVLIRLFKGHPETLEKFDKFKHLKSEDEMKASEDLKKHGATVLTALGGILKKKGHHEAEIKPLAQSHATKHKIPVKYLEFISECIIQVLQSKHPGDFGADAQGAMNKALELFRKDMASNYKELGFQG
Description: Heme protein selectivity by stopped-flow UV-vis spectrometry, myoglobin. The format is biochemical. To be noted: pseudo-first-order conditions. The protocol:
(§1) Since hydrogen sulfide and polysulfides are known to react with other heme proteins, the selectivity of 3 MI for IDO1 was examined by mixing the substituted indole compounds (such as 3 MI) with several other heme proteins and observing their reactions using stopped-flow UV-vis spectrometry.
(§2) The substituted indole compounds had no effect on catalase even at 250 µM, whereas the substituted indole compounds did appear to reduce myoglobin and hemoglobin, producing their oxygen-bound forms. The substituted indole compound was also able to reduce ferric cytochrome c to its distinctive ferrous form. The second-order rate constants of these reactions were determined under pseudo-first-order conditions giving 6.6×10^3, 1.6×10^4, and 2.7×10^5 M^−1 s^−1 for myoglobin, hemoglobin, and cytochrome c, respectively. […] Unlike myoglobin and hemoglobin, the oxy-form of IDO1 was not observed due to the relatively slow reduction of IDO1 by 3 MI.

The target of assay [3] is ferric-superoxo IDO1 (Homo sapiens, UniProt P14902). Description: Double-mixing stopped-flow spectrometry, reaction with ferric-superoxo IDO1. The class given is biochemical. To be noted: 3 MI kept reduced with 5 mM glutathione; estimated, double exponential fit. The protocol: The nature of substituted indole compound-inhibition at high concentrations (>5 μM) was examined further with ferric-superoxo IDO1, the active tryptophan-oxidizing species. Ferric-superoxo IDO1 was generated using double-mixing stopped-flow spectrometry by mixing IDO1 prereduced with 2 mM sodium dithionite into aerobic buffer for 0.5 s. This ferric superoxo species was then mixed in the second push with 3 MI that had been maintained in the reduced state using 5 mM glutathione. 3 MI readily reacted with ferric-superoxo IDO1 to form ferric IDO1 without any observable intermediates. This was shown by a fast shift from the ferric-superoxo complex (Amax 415 nm) to the ferric (Amax 404 nm) that was completed nearly within the mixing time of the instrument (<10 ms) even at the lowest concentration of 3 MI useful for pseudo-first-order reaction conditions (where 3 MI must be at a large excess over IDO1). Following this fast conversion to ferric IDO1, there was a slower shift to the ferric 3 MI-bound complex as indicated by the Soret shifting to 424 nm (as in FIG. 4). To account for both reactions, these traces were fit using a double exponential expression.

Assay [4] has as its target ferric IDO1 (Homo sapiens, UniProt P14902). Description: Stopped-flow UV-vis spectrometry of binding to ferric IDO1. The protocol:
FIG. 3 is a graph showing the second-order rate constant of 3 MI binding to ferric IDO1 determined by stopped-flow spectrometry.
FIG. 4 is a graph showing stopped-flow UV-vis spectrometry of 3 MI (30 μM) binding to IDO1 (1.4 μM) over 0.2 s.
3-Mercaptoindole (3 MI) was seen to bind to IDO1 with a fast on-rate of 1.7×10^6 M^−1 s^−1 under pseudo-first-order conditions (See FIG. 3), producing a UV-vis spectrum (see FIG. 4) that has a Soret at 424 nm, a lower peak at 321 nm, and broad q-bands at 537 nm and a shoulder at about 575 nm. […] Note that although 3 MI is referred to here, similar results can be seen with other substituted indole compounds disclosed herein.

The target of assay [5] is ferric cytochrome c (Homo sapiens, UniProt P99999). The assay is described as follows: Heme protein selectivity by stopped-flow UV-vis spectrometry, cytochrome c. The format is biochemical. Conditions: pseudo-first-order conditions. The procedure:
as §1, §2

The target of assay [6] is hemoglobin (Homo sapiens, UniProt P68871+P69905). Description: Heme protein selectivity by stopped-flow UV-vis spectrometry, hemoglobin. The format is biochemical. To be noted: pseudo-first-order conditions. The procedure: as §1, §2

Where only a bound is given, the exact number is not on record here.

Sequence of IDO1 (P14902 whole entry): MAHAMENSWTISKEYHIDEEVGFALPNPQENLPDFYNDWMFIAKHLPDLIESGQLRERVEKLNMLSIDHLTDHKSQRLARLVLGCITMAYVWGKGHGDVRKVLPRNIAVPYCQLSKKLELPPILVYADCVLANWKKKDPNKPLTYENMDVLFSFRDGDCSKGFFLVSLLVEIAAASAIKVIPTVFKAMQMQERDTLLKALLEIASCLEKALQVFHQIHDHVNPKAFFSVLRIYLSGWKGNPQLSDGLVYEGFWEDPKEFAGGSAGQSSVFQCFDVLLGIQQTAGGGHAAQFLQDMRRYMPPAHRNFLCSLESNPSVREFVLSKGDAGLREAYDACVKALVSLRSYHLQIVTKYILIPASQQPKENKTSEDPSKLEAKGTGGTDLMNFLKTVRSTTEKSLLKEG
Sequence of ferric IDO1 (P14902 whole entry): as above
Sequence of ferric-superoxo IDO1 (P14902 whole entry): as above
Sequence of ferric cytochrome c (P99999 whole entry): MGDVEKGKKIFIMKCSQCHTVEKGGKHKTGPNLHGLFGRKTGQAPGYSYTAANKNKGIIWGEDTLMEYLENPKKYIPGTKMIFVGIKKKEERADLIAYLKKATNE
Sequence of hemoglobin (P69905 2-142 limits assumed): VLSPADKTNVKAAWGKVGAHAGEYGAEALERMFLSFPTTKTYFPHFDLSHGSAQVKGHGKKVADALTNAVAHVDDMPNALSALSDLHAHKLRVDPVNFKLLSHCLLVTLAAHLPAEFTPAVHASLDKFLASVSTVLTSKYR
Sequence of hemoglobin (P68871 2-147 limits assumed): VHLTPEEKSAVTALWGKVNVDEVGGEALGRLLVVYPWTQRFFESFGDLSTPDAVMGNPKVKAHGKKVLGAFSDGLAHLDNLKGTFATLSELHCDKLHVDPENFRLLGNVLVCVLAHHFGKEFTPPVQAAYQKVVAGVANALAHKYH

With `Fc1cc2c(S)c[nH]c2cc1Cl` [6-chloro-5-fluoro-1H-indole-3-thiol], the “IDO1 activity, N-formylkynurenine absorbance at 321 nm over time (FIG. 6)” value in assay [1] (IDO1 50 nM, 0.1 mM L-tryptophan, 5 mM glutathione, 100 mM sodium phosphate pH 7.0, <1 μM compound, background subtracted) is “increase in absorbance”.

`Sc1c[nH]c2ccccc12` [3 MI, 3-Mercaptoindole]: the “second-order rate constant of reduction of myoglobin” value in assay [2] was 6600 M⁻¹ s⁻¹. Moreover, in assay [3], the “second-order rate constant of initial reaction with ferric-superoxo IDO1” value is reported as > 10^7 M^−1 s^−1. In addition, in assay [1], the “concentration above which there was a steep inhibitory effect” value is on record as “Above 5 μM”. Moreover, the Km (in general, the concentration of substrate that gives half-maximal velocity) in assay [1] (500 nM IDO1, 50 μM L-tryptophan, 100 mM sodium phosphate pH 7.0, room temperature, Michaelis-Menten fit, read-out: Km of activation) is 2.2 ± 0.7 µM. The “IDO1 activity with reduced glutathione added” value in assay [1] (5 mM reduced glutathione (FIG. 2, 201)) is “sustained 3 MI-induced IDO1 activity”. Also, in assay [1] (3 MI without glutathione (FIG. 2, 202)), the “time after which the initial burst of IDO1 activity leveled off” value is 500 s. Moreover, the “Kd of binding to IDO1” value in assay [4] (complete conversion to bound IDO1 at micromolar concentrations of 3 MI) was “submicromolar”. Also, in assay [5], the “second-order rate constant of reduction of cytochrome c” value was 270000 M⁻¹ s⁻¹. In addition, in assay [6], the “second-order rate constant of reduction of hemoglobin” value is 16000 M⁻¹ s⁻¹.

Turning to `Sc1c[nH]c2ccccc12` [3-Mercaptoindole (3 MI)], the “on-rate (second-order rate constant) of binding to IDO1” value in assay [4] (pseudo-first-order conditions, stopped-flow) came out at 1.7e+06 M⁻¹ s⁻¹.
